Assay results published in US10703757B2, “Compounds and methods for CDK8 modulation and indications therefor” (Plexxikon Inc., priority 2016, dated 2020).

How the values were obtained:
[1] = tested on: CDK8 (phosphorylation of STAT1 at serine 727 in A549 cells); test: Cell based Phospho-STAT1 assay (IFNγ-stimulated A549 cells, AlphaLISA); conditions: Homo sapiens, A549, A549 cells, phospho-STAT1 after IFNγ stimulation
Method in brief: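 A549 cells given serial compound dilutions for 1 h at 37 °C, then stimulated with IFNγ at 10 ng/mL final for 30 min. Lysate STAT1 Ser727 phosphorylation measured by AlphaLISA; % inhibition vs stimulated/unstimulated DMSO controls, IC50 by nonlinear regression.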

[2] = tested on: CDK8 (TCF/LEF luciferase reporter in HCT116 cells); test: Cell based TCF/LEF reporter assay (HCT116+TCF/LEF luciferase); conditions: Homo sapiens, HCT-116, 24 h
Method in brief: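 HCT116 cells stably carrying a TCF/LEF-luciferase reporter (endogenous mutant β-catenin), seeded overnight, then exposed to serial compound dilutions for 24 h at 37 °C. Luminescence normalized to CellTiter-Fluor viability signal. % inhibition relative to DMSO and 10 uM CCT251545 controls, with IC50 from nonlinear regression.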

SMILES | IC50 [1] [nM] | IC50 [2] [nM]
Cc1ccc2cc(-c3cnn4ccnc(C5=CCC(C#N)CC5)c34)ccc2n1 (centres unmarked) [Compound P-0186, 4-(3-(2-methylquinolin-6-yl)pyrazolo[1,5-a]pyrazin-4-yl)cyclohex-3-ene-1-carbonitrile] | 0.1 to 100 | 0.1 to 100
Cn1ncc2cc(-c3cnn4ccnc(C5=CCC(C(N)=O)CC5)c34)ccc21 (centres unmarked) [Compound P-0136, 4-(3-(1-methyl-1H-indazol-5-yl)pyrazolo[1,5-a]pyrazin-4-yl)cyclohex-3-ene-1-carboxamide] | 0.1 to 100 | 0.1 to 100
Cn1cc(-c2ccc(-c3cnn4cccc(C#CC(C)(C)C(=O)O)c34)cc2)cn1 [Compound P-0297, 2,2-dimethyl-4-(3-(4-(1-methyl-1H-pyrazol-4-yl)phenyl)pyrazolo[1,5-a]pyridin-4-yl)but-3-ynoic acid] | 100 to 1000 | 0.1 to 100
N#CCn1cc(-c2ccc(-c3cnn4ccnc(C5CCC(C#N)CC5)c34)cc2)cn1 (centres unmarked) [Compound P-0014, (1s,4s)-4-(3-(4-(1-(cyanomethyl)-1H-pyrazol-4-yl)phenyl)pyrazolo[1,5-a]pyrazin-4-yl)cyclohexane-1-carbonitrile] | 0.1 to 100 | 0.1 to 100
Cc1cc(-c2cnn3ccnc(C4CCC(C#N)CC4)c23)ccc1-c1cnn(CC(C)(C)O)c1 (centres unmarked) [Compound P-0025, (1s,4s)-4-(3-(4-(1-(2-hydroxy-2-methylpropyl)-1H-pyrazol-4-yl)-3-methylphenyl)pyrazolo[1,5-a]pyrazin-4-yl)cyclohexane-1-carbonitrile] | 0.1 to 100 | 0.1 to 100
CNC(=O)C1CCC(c2cccn3ncc(-c4ccc(-c5cnn(C(F)F)c5)cc4)c23)CC1 (centres unmarked) [Compound P-0317, 4-(3-(4-(1-(difluoromethyl)-1H-pyrazol-4-yl)phenyl)pyrazolo[1,5-a]pyridin-4-yl)-N-methylcyclohexane-1-carboxamide] | 0.1 to 100 | 100 to 1000
N#CC1CCN(c2cccn3ncc(-c4ccc(OCC(O)CN5CCCCC5)cc4)c23)CC1 (centres unmarked) [Compound P-0263, 1-(3-(4-(2-hydroxy-3-(piperidin-1-yl)propoxy)phenyl)pyrazolo[1,5-a]pyridin-4-yl)piperidine-4-carbonitrile] | 0.1 to 100 | 0.1 to 100
N#CC1CC=C(c2nccn3ncc(-c4ccc(-c5cnn(CCN6CCCC6)c5)cc4)c23)CC1 (centres unmarked) [Compound P-0049, 4-(3-(4-(1-(2-(pyrrolidin-1-yl)ethyl)-1H-pyrazol-4-yl)phenyl)pyrazolo[1,5-a]pyrazin-4-yl)cyclohex-3-ene-1-carbonitrile] | 0.1 to 100 | 0.1 to 100
CS(=O)(=O)Nc1ccc2cc(-c3cnn4ccnc(C5=CCC(C#N)CC5)c34)ccc2c1 (centres unmarked) [Compound P-0166, N-(6-(4-(4-cyanocyclohex-1-en-1-yl)pyrazolo[1,5-a]pyrazin-3-yl)naphthalen-2-yl)methanesulfonamide] | 0.1 to 100 | 0.1 to 100
Cn1ncc2cc(-c3cnc4[nH]ccc4c3C3=CCC(C#N)CC3)ccc21 (centres unmarked) [Compound P-0358, 4-(5-(1-methyl-1H-indazol-5-yl)-1H-pyrrolo[2,3-b]pyridin-4-yl)cyclohex-3-ene-1-carbonitrile] | 0.1 to 100 | 0.1 to 100
N#CC1CC=C(c2cccn3ncc(-c4ccc(OCC5CCCCO5)cc4)c23)CC1 (centres unmarked) [Compound P-0182, 4-(3-(4-((tetrahydro-2H-pyran-2-yl)methoxy)phenyl)pyrazolo[1,5-a]pyridin-4-yl)cyclohex-3-ene-1-carbonitrile] | 0.1 to 100 | 0.1 to 100
Cc1cncc(-c2ccc(-c3cnn4cccc(C#CC(C)(C)O)c34)cc2)c1 [Compound P-0231, 2-methyl-4-(3-(4-(5-methylpyridin-3-yl)phenyl)pyrazolo[1,5-a]pyridin-4-yl)but-3-yn-2-ol] | 100 to 1000 | 100 to 1000
N#CC1CCN(c2c(-c3ccc(-c4cnn(CC(F)(F)F)c4)cc3)cnc3[nH]ccc23)CC1 [Compound P-0174, 1-(5-(4-(1-(2,2,2-trifluoroethyl)-1H-pyrazol-4-yl)phenyl)-1H-pyrrolo[2,3-b]pyridin-4-yl)piperidine-4-carbonitrile] | 0.1 to 100 | 0.1 to 100
Cc1cc(C#N)cc(-c2ccc(-c3cnn4cccc(C#CC(C)(C)O)c34)cc2)c1 [Compound P-0235, 4′-(4-(3-hydroxy-3-methylbut-1-yn-1-yl)pyrazolo[1,5-a]pyridin-3-yl)-5-methyl-[1,1′-biphenyl]-3-carbonitrile] | 100 to 1000 | 100 to 1000
CN1CCN(C(=O)c2ccc(-c3cnc4[nH]ccc4c3C3=CCC(C#N)CC3)cc2)CC1 (centres unmarked) [Compound P-0331, 4-(5-(4-(4-methylpiperazine-1-carbonyl)phenyl)-1H-pyrrolo[2,3-b]pyridin-4-yl)cyclohex-3-ene-1-carbonitrile] | 100 to 1000 | 100 to 1000
N#CC1CCN(c2c(-c3ccc4cc(C(=O)O)ccc4c3)cnc3[nH]ccc23)CC1 [Compound P-0200, 6-(4-(4-cyanopiperidin-1-yl)-1H-pyrrolo[2,3-b]pyridin-5-yl)-2-naphthoic acid] | 1000 to 10000 | 100 to 1000
N#CC1CC=C(c2cccn3ncc(-c4ccc(-n5cccn5)cc4)c23)CC1 (centres unmarked) [Compound P-0225, 4-(3-(4-(1H-pyrazol-1-yl)phenyl)pyrazolo[1,5-a]pyridin-4-yl)cyclohex-3-ene-1-carbonitrile] | 0.1 to 100 | 0.1 to 100
Cn1cc(C#Cc2cnc3cccc(N4CCC(C(N)=O)C4)n23)cn1 (centres unmarked) [Compound P-0241, 1-(3-((1-methyl-1H-pyrazol-4-yl)ethynyl)imidazo[1,2-a]pyridin-5-yl)pyrrolidine-3-carboxamide] | 100 to 1000 | 100 to 1000
CC(C)(O)Cn1cc(-c2ccc(-c3cnn4cccc(C#CC(C)(C)C(N)=O)c34)cc2)cn1 [Compound P-0006, 4-(3-(4-(1-(2-hydroxy-2-methylpropyl)-1H-pyrazol-4-yl)phenyl)pyrazolo[1,5-a]pyridin-4-yl)-2,2-dimethylbut-3-ynamide] | 0.1 to 100 | 0.1 to 100
